Converted amounts (≈) assume the structure as drawn.
Legend:
Enterococcus faecium [1] = experiment: Antibacterial activity against vancomycin-resistant Enterococcus faecium 12-1 after 18 hrs by CLSI broth microdilution method; type: functional; settings: 12-1, 18 h
Enterobacter cloacae = experiment: Antibacterial activity against Enterobacter cloacae ATCC 43560 after 18 hrs by CLSI broth microdilution method; type: functional; settings: ATCC 43560, 18 h
Klebsiella pneumoniae [2] = experiment: Antibacterial activity against new delhi metallo-beta-lactamase-1 harboring Klebsiella pneumoniae ATCC BAA-2146 after 18 hrs by CLSI broth microdilution method; type: functional; settings: ATCC BAA-2146, 18 h
Klebsiella pneumoniae [3] = experiment: Antibacterial activity against extended-spectrum beta-lactamase harboring Klebsiella pneumoniae ATCC 700603 after 18 hrs by CLSI broth microdilution method; type: functional; settings: Klebsiella pneumoniae, 700603, 18 h
Klebsiella pneumoniae [4] = experiment: Antibacterial activity against extended-spectrum beta-lactamase deficient Klebsiella pneumoniae 7 after 18 hrs by CLSI broth microdilution method; type: functional; settings: Klebsiella pneumoniae, 7, 18 h
[5] = tested on: Staphylococcus epidermidis; experiment: Antibacterial activity against methicillin-sensitive Staphylococcus epidermidis ATCC 12228 after 18 hrs by CLSI broth microdilution method; type: functional; settings: ATCC 12228, 18 h
Klebsiella pneumoniae [6] = experiment: Antibacterial activity against extended-spectrum beta-lactamase harboring Klebsiella pneumoniae 12-8 after 18 hrs by CLSI broth microdilution method; type: functional; settings: 12-8, 18 h
Enterococcus faecium [7] = experiment: Antibacterial activity against vancomycin-sensitive Enterococcus faecium 12-3 after 18 hrs by CLSI broth microdilution method; type: functional; settings: 12-3, 18 h
Staphylococcus aureus [8] = experiment: Antibacterial activity against methicillin-resistant Staphylococcus aureus ATCC 33591 after 18 hrs by CLSI broth microdilution method; type: functional; settings: ATCC 33591, 18 h
[9] = tested on: Staphylococcus epidermidis; experiment: Antibacterial activity against methicillin-sensitive Staphylococcus epidermidis 12-6 after 18 hrs by CLSI broth microdilution method; type: functional; settings: 12-6, 18 h
Serratia marcescens = experiment: Antibacterial activity against Serratia marcescens ATCC 21074 after 18 hrs by CLSI broth microdilution method; type: functional; settings: ATCC 21074, 18 h
Citrobacter freundii = experiment: Antibacterial activity against Citrobacter freundii ATCC 43864 after 18 hrs by CLSI broth microdilution method; type: functional; settings: ATCC 43864, 18 h
Enterococcus faecalis [10] = experiment: Antibacterial activity against vancomycin-sensitive Enterococcus faecalis 12-5 after 18 hrs by CLSI broth microdilution method; type: functional; settings: 12-5, 18 h
Pseudomonas aeruginosa [11] = experiment: Antibacterial activity against Pseudomonas aeruginosa ATCC 27853 after 18 hrs by CLSI broth microdilution method; type: functional; settings: ATCC 27853, 18 h
[12] = tested on: Acinetobacter calcoaceticus; experiment: Antibacterial activity against Acinetobacter calcoaceticus ATCC 19606 after 18 hrs by CLSI broth microdilution method; type: functional; settings: ATCC 19606, 18 h
Enterococcus faecalis [13] = experiment: Antibacterial activity against vancomycin-sensitive Enterococcus faecalis ATCC 29212 after 18 hrs by CLSI broth microdilution method; type: functional; settings: ATCC 29212, 18 h
Proteus mirabilis = experiment: Antibacterial activity against Proteus mirabilis 12-6 after 18 hrs by CLSI broth microdilution method; type: functional; settings: 12-6, 18 h
Enterococcus faecium [14] = experiment: Antibacterial activity against vancomycin-resistant Enterococcus faecium ATCC 700221 after 18 hrs by CLSI broth microdilution method; type: functional; settings: ATCC 700221, 18 h
Escherichia coli [15] = experiment: Antibacterial activity against extended-spectrum beta-lactamase deficient Escherichia coli ATCC 25922 after 18 hrs by CLSI broth microdilution method; type: functional; settings: ATCC 25922, 18 h
[16] = tested on: Stenotrophomonas maltophilia; experiment: Antibacterial activity against Stenotrophomonas maltophilia ATCC 13636 after 18 hrs by CLSI broth microdilution method; type: functional; settings: ATCC 13636, 18 h
Enterococcus faecalis [17] = experiment: Antibacterial activity against vancomycin-resistant Enterococcus faecalis 09-9 after 18 hrs by CLSI broth microdilution method; type: functional; settings: 09-9, 18 h
Staphylococcus aureus [18] = experiment: Antibacterial activity against methicillin-resistant Staphylococcus aureus 12-33 after 18 hrs by CLSI broth microdilution method; type: functional; settings: 12-33, 18 h
Providencia rettgeri = experiment: Antibacterial activity against Providencia rettgeri ATCC 31052 after 18 hrs by CLSI broth microdilution method; type: functional; settings: ATCC 31052, 18 h
Escherichia coli [19] = experiment: Antibacterial activity against extended-spectrum beta-lactamase harboring Escherichia coli 12-15 after 18 hrs by CLSI broth microdilution method; type: functional; settings: 12-15, 18 h
Staphylococcus aureus [20] = experiment: Antibacterial activity against methicillin-sensitive Staphylococcus aureus ATCC 29213 after 18 hrs by CLSI broth microdilution method; type: functional; settings: ATCC 29213, 18 h
Staphylococcus aureus [21] = experiment: Antibacterial activity against methicillin-sensitive Staphylococcus aureus 12-28 after 18 hrs by CLSI broth microdilution method; type: functional; settings: 12-28, 18 h
Escherichia coli [22] = experiment: Antibacterial activity against extended-spectrum beta-lactamase deficient Escherichia coli 1515 after 18 hrs by CLSI broth microdilution method; type: functional; settings: Escherichia coli, 1515, 18 h
[23] = Cytotoxicity against HEK293T cells assessed as reduction in cell viability after 48 hrs by MTS assay; type: cell-based, HEK-293T; settings: human
Escherichia coli [24] = experiment: Antibacterial activity against extended-spectrum beta-lactamase deficient Escherichia coli 12-14 after 18 hrs by CLSI broth microdilution method; type: functional; settings: 12-14, 18 h
Staphylococcus aureus [25] = experiment: Antibacterial activity against methicillin-sensitive Staphylococcus aureus 15 after 18 hrs by CLSI broth microdilution method; type: functional; settings: Staphylococcus aureus, 15, 18 h
Klebsiella aerogenes = experiment: Antibacterial activity against Enterobacter aerogenes ATCC 13048 after 18 hrs by CLSI broth microdilution method; type: functional; settings: ATCC 13048, 18 h
Klebsiella pneumoniae [26] = experiment: Antibacterial activity against extended-spectrum beta-lactamase deficient Klebsiella pneumoniae 12-4 after 18 hrs by CLSI broth microdilution method; type: functional; settings: 12-4, 18 h
Proteus vulgaris = experiment: Antibacterial activity against Proteus vulgaris ATCC 29905 after 18 hrs by CLSI broth microdilution method; type: functional; settings: ATCC 29905, 18 h
[27] = tested on: Staphylococcus epidermidis; experiment: Antibacterial activity against methicillin-resistant Staphylococcus epidermidis 12-8 after 18 hrs by CLSI broth microdilution method; type: functional; settings: 12-8, 18 h
Enterococcus faecalis [28] = experiment: Antibacterial activity against vancomycin-resistant Enterococcus faecalis ATCC 51299 after 18 hrs by CLSI broth microdilution method; type: functional; settings: ATCC 51299, 18 h
Pseudomonas aeruginosa [29] = experiment: Antibacterial activity against Pseudomonas aeruginosa PAO1 after 18 hrs by CLSI broth microdilution method; type: functional; settings: PAO1, 18 h
Pseudomonas aeruginosa [30] = experiment: Antibacterial activity against Pseudomonas aeruginosa 12-16 after 18 hrs by CLSI broth microdilution method; type: functional; settings: 12-16, 18 h

Compound	MIC (Enterococcus faecium [1]) [µg/mL]	MIC (Enterobacter cloacae) [µg/mL]	MIC (Klebsiella pneumoniae [2]) [µg/mL]	MIC (Klebsiella pneumoniae [3]) [µg/mL]	MIC (Klebsiella pneumoniae [4]) [µg/mL]	MIC [5] [µg/mL]	MIC (Klebsiella pneumoniae [6]) [µg/mL]	MIC (Enterococcus faecium [7]) [µg/mL]	MIC (Staphylococcus aureus [8]) [µg/mL]	MIC [9] [µg/mL]	MIC (Serratia marcescens) [µg/mL]	MIC (Citrobacter freundii) [µg/mL]	MIC (Enterococcus faecalis [10]) [µg/mL]	MIC (Pseudomonas aeruginosa [11]) [µg/mL]	MIC [12] [µg/mL]	MIC (Enterococcus faecalis [13]) [µg/mL]	MIC (Proteus mirabilis) [µg/mL]	MIC (Enterococcus faecium [14]) [µg/mL]	MIC (Escherichia coli [15]) [µg/mL]	MIC [16] [µg/mL]	also measured
CC(C)NC(=N)c1ccc2cc(-c3ccc(-c4cc5ccc(C(=N)NC(C)C)cc5[nH]4)cc3)[nH]c2c1	0.25 (≈ 0.525 µM)	4 (≈ 8.39 µM)	4 (≈ 8.39 µM)	8 (≈ 16.8 µM)	2 (≈ 4.2 µM)	0.125 (≈ 0.262 µM)	2 (≈ 4.2 µM)	0.25 (≈ 0.525 µM)	0.125 (≈ 0.262 µM)	0.125 (≈ 0.262 µM)	8 (≈ 16.8 µM)	2 (≈ 4.2 µM)	0.5 (≈ 1.05 µM)	2 (≈ 4.2 µM)	16 (≈ 33.6 µM)	0.25 (≈ 0.525 µM)	16 (≈ 33.6 µM)	0.25 (≈ 0.525 µM)	2 (≈ 4.2 µM)	4 (≈ 8.39 µM)	MIC (Enterococcus faecalis [17]): 0.25 µg/mL (≈ 0.525 µM); MIC (Staphylococcus aureus [18]): 0.125 µg/mL (≈ 0.262 µM); MIC (Providencia rettgeri): 4 µg/mL (≈ 8.39 µM); MIC (Escherichia coli [19]): 2 µg/mL (≈ 4.2 µM); MIC (Staphylococcus aureus [20]): 0.125 µg/mL (≈ 0.262 µM); MIC (Staphylococcus aureus [21]): 0.125 µg/mL (≈ 0.262 µM); MIC (Escherichia coli [22]): 4 µg/mL (≈ 8.39 µM); CC50 at 48 h [23]: 12.3 µg/mL (≈ 25.8 µM); MIC (Escherichia coli [24]): 4 µg/mL (≈ 8.39 µM); MIC (Staphylococcus aureus [25]): 0.125 µg/mL (≈ 0.262 µM); MIC (Klebsiella aerogenes): 4 µg/mL (≈ 8.39 µM); MIC (Klebsiella pneumoniae [26]): 2 µg/mL (≈ 4.2 µM); MIC (Proteus vulgaris): 4 µg/mL (≈ 8.39 µM); MIC [27]: 0.125 µg/mL (≈ 0.262 µM); MIC (Enterococcus faecalis [28]): 0.25 µg/mL (≈ 0.525 µM); MIC (Pseudomonas aeruginosa [29]): 4 µg/mL (≈ 8.39 µM); MIC (Pseudomonas aeruginosa [30]): 8 µg/mL (≈ 16.8 µM)
N=C(c1ccc2cc(-c3ccc(-c4cc5ccc(C(=N)N6CC=CCC6)cc5[nH]4)cc3)[nH]c2c1)N1CC=CCC1	4 (≈ 7.62 µM)	8 (≈ 15.2 µM)	8 (≈ 15.2 µM)	32 (≈ 61 µM)	16 (≈ 30.5 µM)	1 (≈ 1.91 µM)	16 (≈ 30.5 µM)	4 (≈ 7.62 µM)	1 (≈ 1.91 µM)	4 (≈ 7.62 µM)	64 (≈ 122 µM)	8 (≈ 15.2 µM)	8 (≈ 15.2 µM)	> 128	16 (≈ 30.5 µM)	4 (≈ 7.62 µM)	32 (≈ 61 µM)	4 (≈ 7.62 µM)	8 (≈ 15.2 µM)	16 (≈ 30.5 µM)	MIC (Enterococcus faecalis [17]): 4 µg/mL (≈ 7.62 µM); MIC (Staphylococcus aureus [18]): 2 µg/mL (≈ 3.81 µM); MIC (Providencia rettgeri): 8 µg/mL (≈ 15.2 µM); MIC (Escherichia coli [19]): 8 µg/mL (≈ 15.2 µM); MIC (Staphylococcus aureus [20]): 2 µg/mL (≈ 3.81 µM); MIC (Staphylococcus aureus [21]): 2 µg/mL (≈ 3.81 µM); MIC (Escherichia coli [22]): 8 µg/mL (≈ 15.2 µM); CC50 at 48 h [23]: 13.3 µg/mL (≈ 25.4 µM); MIC (Escherichia coli [24]): 8 µg/mL (≈ 15.2 µM); MIC (Staphylococcus aureus [25]): 2 µg/mL (≈ 3.81 µM); MIC (Klebsiella aerogenes): 8 µg/mL (≈ 15.2 µM); MIC (Klebsiella pneumoniae [26]): 16 µg/mL (≈ 30.5 µM); MIC (Proteus vulgaris): 16 µg/mL (≈ 30.5 µM); MIC [27]: 2 µg/mL (≈ 3.81 µM); MIC (Enterococcus faecalis [28]): 8 µg/mL (≈ 15.2 µM); MIC (Pseudomonas aeruginosa [29]): > 128 µg/mL; MIC (Pseudomonas aeruginosa [30]): > 128 µg/mL
CCN(C)C(=N)c1ccc2cc(-c3ccc(-c4cc5ccc(C(=N)N(C)CC)cc5[nH]4)cc3)[nH]c2c1	0.5 (≈ 1.05 µM)	2 (≈ 4.2 µM)	4 (≈ 8.39 µM)	8 (≈ 16.8 µM)	4 (≈ 8.39 µM)	0.25 (≈ 0.525 µM)	4 (≈ 8.39 µM)	1 (≈ 2.1 µM)	0.5 (≈ 1.05 µM)	0.25 (≈ 0.525 µM)	16 (≈ 33.6 µM)	2 (≈ 4.2 µM)	2 (≈ 4.2 µM)	8 (≈ 16.8 µM)	4 (≈ 8.39 µM)	1 (≈ 2.1 µM)	8 (≈ 16.8 µM)	1 (≈ 2.1 µM)	1 (≈ 2.1 µM)	8 (≈ 16.8 µM)	MIC (Enterococcus faecalis [17]): 2 µg/mL (≈ 4.2 µM); MIC (Staphylococcus aureus [18]): 1 µg/mL (≈ 2.1 µM); MIC (Providencia rettgeri): 4 µg/mL (≈ 8.39 µM); MIC (Escherichia coli [19]): 2 µg/mL (≈ 4.2 µM); MIC (Staphylococcus aureus [20]): 0.5 µg/mL (≈ 1.05 µM); MIC (Staphylococcus aureus [21]): 0.5 µg/mL (≈ 1.05 µM); MIC (Escherichia coli [22]): 2 µg/mL (≈ 4.2 µM); CC50 at 48 h [23]: 17 µg/mL (≈ 35.8 µM); MIC (Escherichia coli [24]): 2 µg/mL (≈ 4.2 µM); MIC (Staphylococcus aureus [25]): 0.5 µg/mL (≈ 1.05 µM); MIC (Klebsiella aerogenes): 2 µg/mL (≈ 4.2 µM); MIC (Klebsiella pneumoniae [26]): 4 µg/mL (≈ 8.39 µM); MIC (Proteus vulgaris): 4 µg/mL (≈ 8.39 µM); MIC [27]: 0.5 µg/mL (≈ 1.05 µM); MIC (Enterococcus faecalis [28]): 2 µg/mL (≈ 4.2 µM); MIC (Pseudomonas aeruginosa [29]): 128 µg/mL (≈ 269 µM); MIC (Pseudomonas aeruginosa [30]): 128 µg/mL (≈ 269 µM)
